In paper PMC10459814:

Tests used:
[1] = test system: CT26 murine colon carcinoma cells; assay: In vivo antitumor efficacy and safety in CT26 tumor-bearing BALB/c mice; conditions: for tumor weight reduction / relative tumor volume growth rate (T/C): CT26 tumor-bearing BALB/c mice; for tumor weight reduction: 21 days
Excerpt: Given its promising in vitro enzymatic potencies, compound NK3 was further evaluated for antitumor efficacy in vivo with a model by injecting immunocompetent BALB/c mice with CT26 murine colon carcinoma cells (Figure 5). CT26 cells, derived from the epithelial glands of BALB/C mice with colon cancer, are commonly employed as a model for investigating immunotherapies and studying host immune responses. […] Dose-dependent growth-inhibitory potency of NK3 was observed (Figure 5B).
Figure 5 In vivo antitumor activity of compound NK3 in CT26 tumor-bearing mice. […] (B) Tumor weight of the excised tumors of each group. (C) Tumor volume of the mice in each group during the observation period. (D) Body weight of the mice from each group at the end of the observation period. Body weight change of each group of mice. The data were presented as the mean ± SD. p < 0.05 (versus the vehicle control group). The antitumor assay in CT26 tumor-bearing mice was carried out in one experiment with previous work.
Pathological analysis of tissue sections from major organs (heart, liver, lung, spleen, and kidney) of CT26 tumor-bearing mice. Hematoxylin and eosin (H&E) were used to stain the organs with representative images captured. The H&E staining of CT26 tumor-bearing mice was carried out in one experiment with previous work.

Hct-116 = assay: MTT cytotoxicity assay, Hct-116; type: cell-based; conditions: Homo sapiens, mean ± SD
Protocol: (§1) The cytotoxic activity of these three compounds was evaluated against HepG2, Hct-116, and SKOV3 cancer cells by MTT assay, using doxorubicin (DOX) as the positive control.

SKOV3 = assay: MTT cytotoxicity assay, SKOV3; type: cell-based; conditions: Homo sapiens, SK-OV-3, mean ± SD
Protocol: as §1

HepG2 = assay: MTT cytotoxicity assay, HepG2; type: cell-based; conditions: Homo sapiens, mean ± SD
Protocol: as §1

human IDO1 [2] = biological target: T1, human IDO1 (Homo sapiens, UniProt P14902); assay: IDO1 standard enzymatic inhibition assay
T1 sequence (P14902 whole entry): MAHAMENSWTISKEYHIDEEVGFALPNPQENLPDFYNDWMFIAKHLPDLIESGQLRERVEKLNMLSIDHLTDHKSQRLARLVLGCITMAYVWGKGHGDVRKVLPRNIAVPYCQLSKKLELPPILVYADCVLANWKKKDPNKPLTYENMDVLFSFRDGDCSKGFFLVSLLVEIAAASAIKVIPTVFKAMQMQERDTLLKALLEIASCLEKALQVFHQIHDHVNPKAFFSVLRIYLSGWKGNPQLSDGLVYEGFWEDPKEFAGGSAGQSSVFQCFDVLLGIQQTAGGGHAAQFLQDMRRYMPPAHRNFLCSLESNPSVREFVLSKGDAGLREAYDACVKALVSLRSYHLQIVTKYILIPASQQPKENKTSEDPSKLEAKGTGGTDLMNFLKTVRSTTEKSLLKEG

[3] = test system: STAT3 nuclear translocation; assay: Immunofluorescence staining of IL-6-induced STAT3 nuclear translocation in HepG2 cells; type: cell-based, human; conditions: 2 μM, IL-6 stimulation 30 min
Protocol: The central role of nuclear translocation in the functioning of transcription factors is evident. The activation of STAT3 transcription is reliant on its nuclear translocation and subsequent binding to target DNA [43], so we further investigated the inhibitory effect of NK3 on preventing STAT3 from translocating to the nucleus by immunofluorescence staining. To this end, HepG2 cells were treated with 2 μM NK3 for […], and then IL-6 was added to stimulate STAT3 translocation for 30 min.
Figure 9 NK3 inhibited the nuclear translocation of STAT3. […] Cells were treated with 2 μM NK3 for 12 h with or without pre-treatment with 50 ng/mL of IL-6 for 30 min. Then, cells were fixed and stained with anti-p-STAT3 and DAPI before being subjected to Zeiss LSM700 Confocal Microscope for analysis.

[4] = test system: human liver cancer HepG2 cells xenograft; assay: In vivo antitumor efficacy in nude mice bearing HepG2 xenograft; conditions: for tumor growth inhibition (tumor weight): 21 days
Excerpt: In order to ascertain the viability of IDO1 as an alternative target for compound NK3, a xenograft model was established by inoculating nude mice with human liver cancer HepG2 cells, subsequent to two injections of two doses of NK3 administered at three-day intervals. […] The antitumor effect of NK3 was also reflected in a delayed increase in xenograft volume (Figure 7C).
Figure 7 In vivo antitumor activity of compound NK3 in nude mice bearing HepG2 xenograft model. (A) The images of the harvested tumors from the mice after administration with NK3 (10 and 20 mg/kg) and the positive control doxorubicin (DOX) (5 mg/kg) every 3 days for 3 weeks. (B) Tumor weight of the excised tumors of each group. (C) Tumor volume of the mice in each group during the observation period. (D) Body weight of the mice from each group at the end of the observation period. Body weight change of each group of mice. The data were presented as the mean ± SD. p < 0.05 (versus the vehicle control group). The antitumor assay in nude mice was carried out in one experiment with previous work. TEXT PRINTED IN THE PICTURE: (B) Dox: 53.0% (5 mg/kg) | (B) NK-3: 61.1% (10 mg/kg); 64.4% (20 mg/kg) DOUBTS OF THE COPYIST ABOUT THIS PICTURE: Panel B: the picture prints no measure for the percentages over the bars (53.0%, 61.1%, 64.4%). The axis reads only 'Tumor weight (g)', so they are copied without a measure.

recombinant STAT3 = recombinant STAT3 (Homo sapiens, UniProt P40763); assay: SPR binding assay (BIAcore) with STAT3; conditions: recombinant STAT3, 0.078-10.0 μM, read-out: KD (equilibrium dissociation constant) with STAT3
Sequence of recombinant STAT3 (P40763 whole entry, species assumed): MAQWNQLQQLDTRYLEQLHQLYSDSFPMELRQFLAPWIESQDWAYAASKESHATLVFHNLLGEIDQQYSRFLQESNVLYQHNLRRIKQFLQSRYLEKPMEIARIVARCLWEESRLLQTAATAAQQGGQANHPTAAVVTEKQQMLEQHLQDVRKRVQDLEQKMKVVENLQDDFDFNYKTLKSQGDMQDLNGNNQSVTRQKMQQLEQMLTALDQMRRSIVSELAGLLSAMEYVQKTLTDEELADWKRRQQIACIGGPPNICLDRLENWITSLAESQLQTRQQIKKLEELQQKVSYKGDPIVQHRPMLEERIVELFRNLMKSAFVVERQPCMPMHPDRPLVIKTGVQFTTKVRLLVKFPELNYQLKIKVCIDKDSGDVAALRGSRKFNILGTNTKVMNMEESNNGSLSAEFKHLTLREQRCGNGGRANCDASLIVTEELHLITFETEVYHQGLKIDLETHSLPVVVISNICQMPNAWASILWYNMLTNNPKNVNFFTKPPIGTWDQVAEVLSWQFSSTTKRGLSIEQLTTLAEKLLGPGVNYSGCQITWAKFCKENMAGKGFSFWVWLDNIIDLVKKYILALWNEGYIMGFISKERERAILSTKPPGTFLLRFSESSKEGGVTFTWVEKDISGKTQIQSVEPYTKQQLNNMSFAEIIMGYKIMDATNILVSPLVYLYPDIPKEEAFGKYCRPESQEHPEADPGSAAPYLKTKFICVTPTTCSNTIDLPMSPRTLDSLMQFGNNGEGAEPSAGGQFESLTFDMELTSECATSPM
Protocol: In order to further investigate the direct interaction between NK3 and STAT3, we conducted an SPR binding assay.
Figure 8 The binding affinity of NK3 with recombinant STAT3 determined by the SPR assay. Concentration from top to bottom: 0.078 μM, 0.156 μM, 0.313 μM, 0.625 μM, 1.25 μM, 2.5 μM, 5.0 μM, and 10.0 μM.

human IDO1 [5] = biological target: T1, human IDO1; assay: SPR binding assay (Biacore T200) with IDO1; conditions: immobilized recombinant IDO1, 0.078-10.0 μM, read-out: KD (equilibrium dissociation constant) with IDO1
Protocol: A surface plasmon resonance (SPR)-based binding assay was conducted to validate the direct interaction between NK3 and IDO1 protein using a Biacore T200 optical biosensor. This analytical method is valuable for determining the kinetic and thermodynamic parameters of ligand–protein complex formation and is widely employed in the study of enzyme–enzyme/inhibitor interactions. The binding affinity between compound NK3 and IDO1 was assessed utilizing Biacore analysis software, accompanied by measurements of kinetic association and dissociation. As depicted in Figure 3, compound NK3 efficiently interacted with the immobilized protein to induce a concentration-dependent response for association or dissociation, respectively. […] The binding assays confirmed the direct binding of compound NK3 to IDO1 protein.
Figure 3 The binding affinity of NK3 with recombinant IDO1 determined by the SPR assay. Concentration from top to bottom: 0.078 μM, 0.156 μM, 0.313 μM, 0.625 μM, 1.25 μM, 2.5 μM, 5.0 μM, and 10.0 μM.

Question: Which tumor weight reduction ([1]; 100 mg/kg intraperitoneal) does the source give for `Cn1cc(C[C@H](N)C(=O)O)c2ccccc21` [Compound 1-MT, 1-methyl-L-tryptophan, reference compound] here?
Answer: 45.6%

Question: For `COc1cccc2c1C(=O)c1c(O)c3c(c(O)c1C2=O)C[C@@](O)(C(=O)CO)C[C@@H]3O[C@H]1C[C@H](N)[C@H](O)[C@H](C)O1` [DOX, doxorubicin, reference compound], which IC50 (Hct-116) is on record?
Answer: 0.37 ± 0.02 µM

Question: And the IC50 (SKOV3)?
Answer: 0.58 ± 0.28 µM

Question: What about the IC50 (HepG2) of the same compound?
Answer: 0.28 ± 0.03 µM

Question: Which IC50 (Hct-116) does the source give for `Nc1nonc1C(=NO)Nc1ccc(F)c(Cl)c1` [IDO5L, reference compound] here?
Answer: > 40 µM

Question: And the tumor weight reduction ([1]; 100 mg/kg intraperitoneal)?
Answer: 70.9%

Question: What about the IC50 (SKOV3) of the same compound?
Answer: > 40 µM

Question: And the IC50 (HepG2)?
Answer: > 40 µM

Question: For `CCCCC(CC)CNC(=O)C(Cc1ccccc1)NC1=C/C(=N/O)c2ccccc2C1=O` (stereo not shown) [NK1, (Z)-N-(2-ethylhexyl)-2-((4-(hydroxyimino)-1-oxo-1,4-dihydronaphthalen-2-yl)amino)-3-phenylpropanamide], which melting point is on record?
Answer: 120.3 to 121.8 °C

Question: And the IC50 (Hct-116)?
Answer: 0.49 ± 0.14 µM

Question: And the IC50 (human IDO1 [2])?
Answer: 3.45 µM

Question: And the IC50 (SKOV3)?
Answer: 0.95 ± 0.18 µM

Question: What about the IC50 (HepG2) of the same compound?
Answer: 1.28 ± 0.27 µM

Question: Which results are given for `O=C1C(NC(Cc2ccccc2)C(=O)NCCc2ccccc2)=C/C(=N/O)c2ccccc21` (stereo not shown) [NK2, (Z)-2-((4-(hydroxyimino)-1-oxo-1,4-dihydronaphthalen-2-yl)amino)-N-phenethyl-3-phenylpropanamide]?
Answer: melting point: 197.2 to 198.6 °C; IC50 (Hct-116): 5.84 ± 1.34 µM; IC50 (human IDO1 [2]): 8.22 µM; IC50 (SKOV3): 4.25 ± 1.65 µM; IC50 (HepG2): 5.08 ± 0.33 µM

Question: With `CCCNC(=O)C(Cc1ccccc1)NC1=C/C(=N/O)c2ccccc2C1=O` (stereo not shown) [NK3, (Z)-2-((4-(hydroxyimino)-1-oxo-1,4-dihydronaphthalen-2-yl)amino)-3-phenyl-N-propylpropanamide] as the compound, how does the IC50 (Hct-116) read?
Answer: 0.18 ± 0.04 µM

Question: And the STAT3 nuclear translocation [3]?
Answer: significantly inhibited

Question: And the IC50 (human IDO1 [2])?
Answer: 0.06 µM

Question: What about the “tumor growth inhibition (tumor weight)” value ([4]; 10 mg/kg intravenous every 3 days) of the same compound?
Answer: 61.1%

Question: What about the “tumor growth inhibition (tumor weight)” value ([4]; 20 mg/kg intravenous every 3 days) of the same compound?
Answer: 64.4%

Question: And the “body weight / tolerability” value ([4]; compared to DOX)?
Answer: did not cause significant weight loss

Question: What about the “relative tumor volume growth rate (T/C)” value ([1]; 50 mg/kg) of the same compound?
Answer: 56.00%

Question: And the tumor weight reduction ([1]; 50 mg/kg intraperitoneal)?
Answer: 42.8%

Question: What about the “relative tumor volume growth rate (T/C)” value ([1]; 100 mg/kg) of the same compound?
Answer: 29.07%

Question: What about the tumor weight reduction ([1]; 100 mg/kg intraperitoneal) of the same compound?
Answer: 65.8%

Question: What about the “pathology (H&E) of heart, liver, spleen, lung, kidney” value ([1]; CT26 tumor-bearing mice) of the same compound?
Answer: no obvious morphological and pathological changes

Question: What about the “body weight change versus vehicle” value ([1]; CT26 tumor-bearing mice, 21 days of treatment) of the same compound?
Answer: no significant change in body weight

Question: And the Kd (recombinant STAT3)?
Answer: 0.17 µM

Question: And the Kd (human IDO1 [5])?
Answer: 0.16 µM

Question: What about the IC50 (SKOV3) of the same compound?
Answer: 0.48 ± 0.23 µM

Question: What about the IC50 (HepG2) of the same compound?
Answer: 0.16 ± 0.04 µM
